Experimental data taken from ChEMBL document CHEMBL4507289, “Data for DCP probe GSM1” (2021).

What was measured:
[1] = target: Serine/threonine-protein kinase pim-3 (Homo sapiens) (UniProt Q86V86); details: Compound concentration 1000.0 nM
[2] = target: Serine/threonine-protein kinase PAK 3 (Homo sapiens) (UniProt O75914); details: Compound concentration 1000.0 nM
[3] = target: Serine/threonine-protein kinase RIO3 (Homo sapiens) (UniProt O14730); details: Compound concentration 1000.0 nM
[4] = target: Cyclin-dependent kinase 4 (Homo sapiens) (UniProt P11802); details: Compound concentration 1000.0 nM
Cyclin-dependent kinase 4 (Homo sapiens), sequence (P11802 whole entry): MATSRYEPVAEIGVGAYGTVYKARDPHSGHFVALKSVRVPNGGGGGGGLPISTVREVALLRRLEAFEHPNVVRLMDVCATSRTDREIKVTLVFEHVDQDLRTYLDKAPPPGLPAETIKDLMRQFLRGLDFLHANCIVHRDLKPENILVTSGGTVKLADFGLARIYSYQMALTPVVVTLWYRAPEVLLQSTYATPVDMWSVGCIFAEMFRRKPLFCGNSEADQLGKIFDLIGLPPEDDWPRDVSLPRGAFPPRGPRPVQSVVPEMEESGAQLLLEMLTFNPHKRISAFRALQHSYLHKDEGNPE

[5] = target: Beta-1 adrenergic receptor (Homo sapiens) (UniProt P08588); details: Compound concentration 10.0 uM
[6] = target: Alpha-2B adrenergic receptor (Homo sapiens) (UniProt P18089); details: Compound concentration 10.0 uM
[7] = system: Epidermal growth factor receptor (Homo sapiens), P00533 [T790M]; details: Compound concentration 1000.0 nM
[8] = target: Megakaryocyte-associated tyrosine-protein kinase (Homo sapiens) (UniProt P42679); details: Compound concentration 1000.0 nM
[9] = target: Serine/threonine-protein kinase pim-2 (Homo sapiens) (UniProt Q9P1W9); details: Compound concentration 1000.0 nM
[10] = target: Focal adhesion kinase 1 (Homo sapiens) (UniProt Q05397); details: Compound concentration 1000.0 nM
[11] = system: Phosphatidylinositol 4,5-bisphosphate 3-kinase catalytic subunit alpha isoform (Homo sapiens), P42336 [E545A]; details: Compound concentration 1000.0 nM
[12] = target: Ribosomal protein S6 kinase alpha-6 (Homo sapiens) (UniProt Q9UK32); details: Compound concentration 1000.0 nM
[13] = target: Tyrosine-protein kinase receptor TYRO3 (Homo sapiens) (UniProt Q06418); details: Compound concentration 1000.0 nM
[14] = target: Hepatocyte growth factor receptor (Homo sapiens) (UniProt P08581); details: Compound concentration 1000.0 nM
[15] = system: Tyrosine-protein kinase ABL1 (Homo sapiens), P00519 [Q252H]; details: Compound concentration 1000.0 nM
[16] = system: Epidermal growth factor receptor (Homo sapiens), P00533 [UNDEFINED MUTATION]; details: Compound concentration 1000.0 nM
[17] = system: Mast/stem cell growth factor receptor Kit (Homo sapiens), P10721 [L576P]; details: Compound concentration 1000.0 nM
[18] = target: Tyrosine-protein kinase CSK (Homo sapiens) (UniProt P41240); details: Compound concentration 1000.0 nM
[19] = system: Epidermal growth factor receptor (Homo sapiens), P00533 [G719C]; details: Compound concentration 1000.0 nM
[20] = target: Calcium-dependent protein kinase 1 (Plasmodium falciparum) (UniProt P62344); details: Compound concentration 1000.0 nM
[21] = target: Serine/threonine-protein kinase Nek10 (Homo sapiens) (UniProt Q6ZWH5); details: Compound concentration 1000.0 nM
[22] = target: Mast/stem cell growth factor receptor Kit (Homo sapiens) (UniProt P10721); details: Compound concentration 1000.0 nM
Mast/stem cell growth factor receptor Kit (Homo sapiens), sequence (P10721 whole entry): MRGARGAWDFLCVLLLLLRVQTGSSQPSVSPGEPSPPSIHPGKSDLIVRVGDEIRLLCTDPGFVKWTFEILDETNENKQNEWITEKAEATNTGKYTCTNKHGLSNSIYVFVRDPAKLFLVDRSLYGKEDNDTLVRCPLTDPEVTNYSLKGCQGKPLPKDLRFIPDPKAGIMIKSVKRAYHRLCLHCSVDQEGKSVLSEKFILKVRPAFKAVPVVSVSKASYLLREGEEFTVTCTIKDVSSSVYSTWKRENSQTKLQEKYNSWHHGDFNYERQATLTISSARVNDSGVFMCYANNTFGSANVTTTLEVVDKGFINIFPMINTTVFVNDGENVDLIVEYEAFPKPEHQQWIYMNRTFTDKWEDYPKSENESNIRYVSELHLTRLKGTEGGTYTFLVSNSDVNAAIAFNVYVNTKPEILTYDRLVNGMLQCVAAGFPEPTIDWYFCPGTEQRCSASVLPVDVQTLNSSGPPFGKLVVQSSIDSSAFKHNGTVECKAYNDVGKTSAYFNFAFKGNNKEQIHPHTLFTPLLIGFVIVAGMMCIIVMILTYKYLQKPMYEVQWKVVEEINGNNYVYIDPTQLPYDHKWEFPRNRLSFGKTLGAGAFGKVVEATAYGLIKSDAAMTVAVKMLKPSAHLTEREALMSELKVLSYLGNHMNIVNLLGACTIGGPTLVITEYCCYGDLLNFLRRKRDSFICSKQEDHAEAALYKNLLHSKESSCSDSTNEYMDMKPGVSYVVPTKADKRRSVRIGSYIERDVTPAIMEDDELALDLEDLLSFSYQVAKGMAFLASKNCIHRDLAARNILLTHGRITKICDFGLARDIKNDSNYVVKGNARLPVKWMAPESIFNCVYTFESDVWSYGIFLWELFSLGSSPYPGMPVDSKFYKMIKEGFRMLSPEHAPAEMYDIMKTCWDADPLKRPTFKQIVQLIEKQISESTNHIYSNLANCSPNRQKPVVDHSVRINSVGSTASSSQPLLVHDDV

[23] = target: Tyrosine-protein kinase Fgr (Homo sapiens) (UniProt P09769); details: Compound concentration 1000.0 nM
Tyrosine-protein kinase Fgr (Homo sapiens), sequence (P09769 2-529 limits assumed): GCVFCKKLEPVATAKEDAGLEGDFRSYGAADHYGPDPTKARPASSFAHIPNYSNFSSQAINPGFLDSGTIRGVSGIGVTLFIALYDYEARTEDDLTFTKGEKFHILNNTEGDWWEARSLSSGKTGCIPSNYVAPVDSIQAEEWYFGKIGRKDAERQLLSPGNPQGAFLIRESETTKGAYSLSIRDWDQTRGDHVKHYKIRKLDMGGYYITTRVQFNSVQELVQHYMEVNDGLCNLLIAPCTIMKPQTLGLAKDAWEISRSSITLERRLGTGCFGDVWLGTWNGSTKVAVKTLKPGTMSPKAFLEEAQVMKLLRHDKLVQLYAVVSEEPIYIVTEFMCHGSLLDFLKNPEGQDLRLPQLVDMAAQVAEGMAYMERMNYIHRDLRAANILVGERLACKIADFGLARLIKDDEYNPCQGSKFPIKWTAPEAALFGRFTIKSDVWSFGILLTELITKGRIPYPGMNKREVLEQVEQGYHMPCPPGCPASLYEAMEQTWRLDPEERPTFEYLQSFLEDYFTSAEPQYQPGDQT

[24] = target: Homeodomain-interacting protein kinase 4 (Homo sapiens) (UniProt Q8NE63); details: Compound concentration 1000.0 nM
[25] = target: Activin receptor type-1B (Homo sapiens) (UniProt P36896); details: Compound concentration 1000.0 nM
Activin receptor type-1B (Homo sapiens), sequence (P36896 whole entry): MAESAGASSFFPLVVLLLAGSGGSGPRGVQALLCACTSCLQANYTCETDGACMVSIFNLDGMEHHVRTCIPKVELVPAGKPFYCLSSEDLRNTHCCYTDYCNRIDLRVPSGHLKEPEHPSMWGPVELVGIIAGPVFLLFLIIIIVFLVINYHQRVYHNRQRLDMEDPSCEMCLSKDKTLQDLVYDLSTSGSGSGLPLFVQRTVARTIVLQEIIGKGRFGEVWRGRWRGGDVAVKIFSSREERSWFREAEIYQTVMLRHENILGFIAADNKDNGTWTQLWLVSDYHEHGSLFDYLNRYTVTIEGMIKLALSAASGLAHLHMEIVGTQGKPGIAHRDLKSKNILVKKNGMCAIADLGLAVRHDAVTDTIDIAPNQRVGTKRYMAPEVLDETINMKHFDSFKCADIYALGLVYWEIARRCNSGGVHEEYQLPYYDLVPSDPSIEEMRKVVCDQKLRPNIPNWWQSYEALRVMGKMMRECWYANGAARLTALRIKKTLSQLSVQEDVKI

[26] = target: Ribosomal protein S6 kinase alpha-5 (Homo sapiens) (UniProt O75582); details: Compound concentration 1000.0 nM
[27] = target: Mitogen-activated protein kinase 12 (Homo sapiens) (UniProt P53778); details: Compound concentration 1000.0 nM
Mitogen-activated protein kinase 12 (Homo sapiens), sequence (P53778 whole entry): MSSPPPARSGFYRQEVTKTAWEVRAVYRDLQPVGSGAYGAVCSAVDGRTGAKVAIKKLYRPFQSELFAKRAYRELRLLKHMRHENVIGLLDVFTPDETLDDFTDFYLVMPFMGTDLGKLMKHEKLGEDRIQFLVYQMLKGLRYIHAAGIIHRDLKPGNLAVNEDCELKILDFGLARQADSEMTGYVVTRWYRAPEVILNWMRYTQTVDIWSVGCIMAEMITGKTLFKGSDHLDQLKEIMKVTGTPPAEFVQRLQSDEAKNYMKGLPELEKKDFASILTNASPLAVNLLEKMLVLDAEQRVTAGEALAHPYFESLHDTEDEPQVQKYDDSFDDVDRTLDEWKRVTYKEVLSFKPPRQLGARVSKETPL

[28] = target: Cyclin-dependent kinase-like 3 (Homo sapiens) (UniProt Q8IVW4); details: Compound concentration 1000.0 nM
[29] = system: Tyrosine-protein kinase ABL1 (Homo sapiens), P00519 [F317L]; details: Compound concentration 1000.0 nM
[30] = target: Serine/threonine-protein kinase MAK (Homo sapiens) (UniProt P20794); details: Compound concentration 1000.0 nM
Serine/threonine-protein kinase MAK (Homo sapiens), sequence (P20794 whole entry): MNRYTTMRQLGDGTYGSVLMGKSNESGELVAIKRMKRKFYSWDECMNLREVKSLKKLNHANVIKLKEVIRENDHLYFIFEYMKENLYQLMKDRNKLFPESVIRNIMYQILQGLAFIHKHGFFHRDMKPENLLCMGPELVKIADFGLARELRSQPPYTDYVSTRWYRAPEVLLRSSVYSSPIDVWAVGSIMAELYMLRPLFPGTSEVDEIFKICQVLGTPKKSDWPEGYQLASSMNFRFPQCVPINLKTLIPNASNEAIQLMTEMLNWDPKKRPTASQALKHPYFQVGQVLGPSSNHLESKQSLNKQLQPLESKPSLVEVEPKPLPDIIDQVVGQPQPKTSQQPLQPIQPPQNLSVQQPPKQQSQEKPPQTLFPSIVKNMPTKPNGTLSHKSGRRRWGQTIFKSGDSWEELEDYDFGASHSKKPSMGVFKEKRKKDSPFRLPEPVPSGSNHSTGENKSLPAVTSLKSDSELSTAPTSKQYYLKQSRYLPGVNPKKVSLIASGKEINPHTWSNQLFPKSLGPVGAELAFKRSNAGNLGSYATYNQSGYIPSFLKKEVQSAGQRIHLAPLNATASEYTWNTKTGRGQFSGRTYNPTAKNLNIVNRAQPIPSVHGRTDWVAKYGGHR

[31] = target: Glycogen synthase kinase-3 beta (Homo sapiens) (UniProt P49841); details: Compound concentration 1000.0 nM
[32] = target: Bone morphogenetic protein receptor type-1B (Homo sapiens) (UniProt O00238); details: Compound concentration 1000.0 nM
[33] = target: Mitogen-activated protein kinase 3 (Homo sapiens) (UniProt P27361); details: Compound concentration 1000.0 nM
[34] = target: NT-3 growth factor receptor (Homo sapiens) (UniProt Q16288); details: Compound concentration 1000.0 nM
[35] = target: Serine/threonine-protein kinase PLK1 (Homo sapiens) (UniProt P53350); details: Compound concentration 1000.0 nM
[36] = target: Serine/threonine-protein kinase RIO2 (Homo sapiens) (UniProt Q9BVS4); details: Compound concentration 1000.0 nM
Serine/threonine-protein kinase RIO2 (Homo sapiens), sequence (Q9BVS4 whole entry, looked up): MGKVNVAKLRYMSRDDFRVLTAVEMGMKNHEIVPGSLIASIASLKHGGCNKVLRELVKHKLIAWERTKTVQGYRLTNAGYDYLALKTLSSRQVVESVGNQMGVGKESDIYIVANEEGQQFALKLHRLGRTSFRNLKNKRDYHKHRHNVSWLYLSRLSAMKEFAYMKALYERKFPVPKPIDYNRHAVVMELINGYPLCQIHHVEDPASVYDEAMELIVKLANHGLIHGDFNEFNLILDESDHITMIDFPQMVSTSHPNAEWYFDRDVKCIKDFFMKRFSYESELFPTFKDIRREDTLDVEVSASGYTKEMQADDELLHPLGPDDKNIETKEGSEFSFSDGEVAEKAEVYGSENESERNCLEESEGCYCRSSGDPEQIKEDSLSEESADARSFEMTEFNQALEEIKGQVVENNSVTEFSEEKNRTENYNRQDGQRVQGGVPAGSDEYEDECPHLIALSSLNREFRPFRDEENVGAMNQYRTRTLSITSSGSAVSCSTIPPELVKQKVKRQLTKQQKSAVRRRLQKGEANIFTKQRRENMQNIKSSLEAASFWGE

[37] = target: Mitogen-activated protein kinase 9 (Homo sapiens) (UniProt P45984); details: Compound concentration 1000.0 nM
[38] = target: 5-hydroxytryptamine receptor 6 (Homo sapiens) (UniProt P50406); details: Compound concentration 10.0 uM
[39] = target: 5-hydroxytryptamine receptor 2A (Homo sapiens) (UniProt P28223); details: Compound concentration 10.0 uM
[40] = target: Calcium/calmodulin-dependent protein kinase type II subunit beta (Homo sapiens) (UniProt Q13554); details: Compound concentration 1000.0 nM
[41] = target: Serine/threonine-protein kinase NIM1 (Homo sapiens) (UniProt Q8IY84); details: Compound concentration 1000.0 nM
Serine/threonine-protein kinase NIM1 (Homo sapiens), sequence (Q8IY84 whole entry): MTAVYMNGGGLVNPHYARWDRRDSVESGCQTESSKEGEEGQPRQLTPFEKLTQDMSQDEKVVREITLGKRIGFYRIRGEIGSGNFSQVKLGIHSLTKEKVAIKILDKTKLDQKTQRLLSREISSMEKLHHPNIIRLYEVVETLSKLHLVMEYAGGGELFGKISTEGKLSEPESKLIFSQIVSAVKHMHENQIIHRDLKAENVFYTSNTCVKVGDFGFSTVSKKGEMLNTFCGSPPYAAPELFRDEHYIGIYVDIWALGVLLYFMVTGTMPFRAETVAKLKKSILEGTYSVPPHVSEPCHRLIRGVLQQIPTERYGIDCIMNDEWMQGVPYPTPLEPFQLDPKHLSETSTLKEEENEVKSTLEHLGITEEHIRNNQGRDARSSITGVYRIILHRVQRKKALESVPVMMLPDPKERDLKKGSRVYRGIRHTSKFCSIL

[42] = target: Mitogen-activated protein kinase 15 (Homo sapiens) (UniProt Q8TD08); details: Compound concentration 1000.0 nM
[43] = target: 5-hydroxytryptamine receptor 2C (Homo sapiens) (UniProt P28335); details: Compound concentration 10.0 uM
[44] = target: Ephrin type-B receptor 1 (Homo sapiens) (UniProt P54762); details: Compound concentration 1000.0 nM
[45] = target: Tyrosine-protein kinase ABL1 (Homo sapiens) (UniProt P00519); details: Compound concentration 1000.0 nM
[46] = target: Non-receptor tyrosine-protein kinase TNK1 (Homo sapiens) (UniProt Q13470); details: Compound concentration 1000.0 nM
Non-receptor tyrosine-protein kinase TNK1 (Homo sapiens), sequence (Q13470 whole entry): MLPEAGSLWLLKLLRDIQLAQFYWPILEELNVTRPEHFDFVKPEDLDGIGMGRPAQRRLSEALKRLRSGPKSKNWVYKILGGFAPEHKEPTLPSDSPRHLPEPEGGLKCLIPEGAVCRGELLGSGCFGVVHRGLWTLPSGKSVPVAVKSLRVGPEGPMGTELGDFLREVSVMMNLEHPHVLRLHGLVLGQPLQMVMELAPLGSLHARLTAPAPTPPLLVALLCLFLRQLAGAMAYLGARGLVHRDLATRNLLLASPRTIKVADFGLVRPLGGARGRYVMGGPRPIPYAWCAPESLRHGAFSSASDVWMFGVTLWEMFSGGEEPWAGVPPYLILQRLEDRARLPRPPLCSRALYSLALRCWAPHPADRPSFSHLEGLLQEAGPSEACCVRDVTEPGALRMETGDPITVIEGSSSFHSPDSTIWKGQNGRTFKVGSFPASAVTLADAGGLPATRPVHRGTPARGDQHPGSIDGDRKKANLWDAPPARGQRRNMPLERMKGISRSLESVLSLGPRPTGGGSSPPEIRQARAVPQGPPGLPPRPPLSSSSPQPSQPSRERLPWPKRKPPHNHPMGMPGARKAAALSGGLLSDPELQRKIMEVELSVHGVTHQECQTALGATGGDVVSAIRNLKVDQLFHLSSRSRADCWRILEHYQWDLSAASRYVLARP

COc1cc(-c2cn([C@H]3CCc4ccccc4N(CC(F)(F)F)C3=O)nn2)ccc1-n1ccc(C)n1
inactive: residual activity [1] 100% | residual activity [2] 100% | residual activity [3] 100% | residual activity [4] 53% | inhibition [5] 3.7% | inhibition [6] 7.14% | residual activity [7] 59% | residual activity [8] 80% | residual activity [9] 100% | residual activity [10] 100% | residual activity [11] 71% | residual activity [12] 81% | residual activity [13] 100% | residual activity [14] 100% | residual activity [15] 71% | residual activity [16] 100% | residual activity [17] 62% | residual activity [18] 100% | residual activity [19] 100% | residual activity [20] 99% | residual activity [21] 81% | residual activity [22] 96% | residual activity [23] 90% | residual activity [24] 100% | residual activity [25] 83% | residual activity [26] 71% | residual activity [27] 100% | residual activity [28] 88% | residual activity [29] 57% | residual activity [30] 99% | residual activity [31] 85% | residual activity [32] 100% | residual activity [33] 100% | residual activity [34] 98% | residual activity [35] 84% | residual activity [36] 96% | residual activity [37] 64% | inhibition [38] -1.39% | inhibition [39] 5.83% | residual activity [40] 97% | residual activity [41] 80% | residual activity [42] 100% | inhibition [43] 16.9% | residual activity [44] 100% | residual activity [45] 78% | residual activity [46] 100%

COc1cc(-c2cn([C@H]3CCc4c(F)cccc4N(CC(F)(F)F)C3=O)nn2)ccc1-n1cnc(C)c1
inactive: residual activity [1] 90% | residual activity [2] 100% | residual activity [3] 100% | residual activity [4] 88% | inhibition [5] 2.45% | inhibition [6] 31.1% | residual activity [7] 83% | residual activity [8] 100% | residual activity [9] 100% | residual activity [10] 100% | residual activity [11] 100% | residual activity [12] 82% | residual activity [13] 100% | residual activity [14] 100% | residual activity [15] 100% | residual activity [16] 100% | residual activity [17] 100% | residual activity [18] 100% | residual activity [19] 94% | residual activity [20] 100% | residual activity [21] 100% | residual activity [22] 100% | residual activity [23] 100% | residual activity [24] 100% | residual activity [25] 100% | residual activity [26] 73% | residual activity [27] 79% | residual activity [28] 100% | residual activity [29] 78% | residual activity [30] 100% | residual activity [31] 100% | residual activity [32] 100% | residual activity [33] 100% | residual activity [34] 95% | residual activity [35] 100% | residual activity [36] 100% | residual activity [37] 92% | inhibition [38] -4.64% | inhibition [39] 11.5% | residual activity [40] 100% | residual activity [41] 78% | residual activity [42] 78% | inhibition [43] 27.6% | residual activity [44] 100% | residual activity [45] 94% | residual activity [46] 100%
